Data taken from US10869904B2, “Pharmaceutical composition for preventing or treating respiratory disease comprising extract of Justicia procumbens L” (DONG WHA PHARM. CO., LTD., priority 2016, dated 2020).

Tested on: ICR mice
Experiment: Test for evaluation of expectorant activity (phenol red in trachea)
Format: in vivo
Conditions: 200 mg/kg, oral, male ICR mice
Procedure: In order to evaluate the expectorant activities of the water and ethanol extracts of Justicia procumbens L., prepared in Preparation Examples 1-1 to 1-2, a test for evaluation of expectorant activity was performed using male ICR mice (weighed 30 to 33 g; Orientbio). Specifically, the extracts and the comparative drug ambroxol (200 mg/kg, Boehringer Ingelheim) were administered orally to the respective groups of mice that fasted the previous day. […] The isolated trachea was freeze-stored in 1 ml of physiological saline for 24 hours. Next, the trachea was sonicated, and 1N NaOH was added to the supernatant (0.1 ml of 1N NaOH per ml of the supernatant). Then, the absorbance at 546 nm was measured and the expectorant activity was measured with the concentration of phenol red.

**Q.** `Nc1c(Br)cc(Br)cc1CN[C@H]1CC[C@H](O)CC1` [Ambroxol, ambroxol] was tested. Which “Expectoration (%, n = 4, Mean ± SE)” value did it give?
**A.** 11.4 ± 12.89%
